From patent US9155743B2, “Bicyclic heterocycle compounds and their uses in therapy” (priority 2011, dated 2015)
Structures can show the parent of a compound that is named as a salt. Where two headings read alike, the source gives them in different places.

Legend:
[1] = target: XIAP BIR3 domain (Homo sapiens (Human), UniProt P98170); test: XIAP in vitro competitive displacement binding assay (fluorescence polarization); details: for IC50: given as ranges, a range also covers PI >= approx 50% at <= the upper concentration, read-out: IC50 or PI Xiap
[2] = target: cIAP-1 BIR3 domain (Homo sapiens (Human), UniProt Q13490); test: cIAP-1 in vitro competitive displacement binding assay (fluorescence polarization); details: for IC50: given as ranges, read-out: IC50 or PI cIAP1
[3] = tested on: EVSA-T (human breast carcinoma); test: Anti-proliferative activity, Alamar Blue assay, EVSA-T; type: cell-based; details: for inhibition at 10 µM: read-out: EC50 or PI EVSA-T prolif (percentage inhibition)
[4] = tested on: XIAP or cIAP1; test: Assays using XIAP and cIAP1 (result stated for XIAP or cIAP1); type: binding, human
[5] = AbuRPFK(5&6FAM)-amide probe (Probe B)
[6] = EVSA-T, 72 hours compound incubation, read-out: EC50 or PI EVSA-T prolif
[7] = read-out: EC50 or greater than 50% at 10 μM, EVSA-T cell line
[8] = read-out: IC50 or at least 50% inhibition of the activity at a concentration of 1 μM, against XIAP or cIAP1
[9] = read-out: IC50 or at least 50% inhibition of the activity at a concentration of 10 μM, against XIAP or cIAP1
[10] = EVSA-T, 72 h, read-out: EC50 or PI EVSA-T prolif
[11] = EVSA-T, read-out: EC50 or greater than 50% at 10 μM
[12] = AVPIK(5&6FAM)-amide probe (Probe A)

Row | SMILES | IC50 [1] [µM] | IC50 [2, 5] [µM] | EC50 [3, 6] [µM] | EC50 [3, 7] [µM] | IC50 [4, 8] [µM] | IC50 [4, 9] [µM] | also measured
1 | CN[C@@H](C)C(=O)Nc1ccc2c(n1)OC(C)(C1CCCC1)C(=O)N2c1cccc(Cl)c1 (stereo partly drawn) [Example 13, (S)-N-[1-(3-Chloro-phenyl)-3-cyclopentyl-3-methyl-2-oxo-2,3-dihydro-1H-pyrido[2,3-b][1,4]oxazin-6-yl]-2-methylamino-propionamide hydrochloride] | 0.01 to 1 | 0.01 to 1 | 0.17 | < 10 | < 1 | < 10 | –
2 | CN[C@@H](C)C(=O)Nc1ccc2c(n1)CN(C1CCC(C)(C)CC1)C(=O)N2c1cccc(Cl)c1 [Example 35, (S)-N-[1-(3-Chloro-phenyl)-3-(4,4-dimethyl-cyclohexyl)-2-oxo-1,2,3,4-tetrahydro-pyrido[3,2-d]pyrimidin-6-yl]-2-methylamino-propionamide hydrochloride] | 0.01 to 1 | 0.01 to 1 | 0.65 | < 10 | < 1 | < 10 | –
3 | CN[C@@H](C)C(=O)Nc1ccc2c(n1)O[C@@](C)(c1ccccc1)C(=O)N2c1ccc(Cl)cc1 [Example 3, (S)—N—[(S)-1-(4-Chloro-phenyl)-3-methyl-2-oxo-3-phenyl-2,3-dihydro-1H-pyrido[2,3-b][1,4]oxazin-6-yl]-2-methylamino-propionamide hydrochloride] | 0.01 to 1 | 0.01 to 1 | 0.28 | < 10 | < 1 | < 10 | –
4 | CN[C@@H](C)C(=O)Nc1ccc2c(n1)OC1(CCCCC1)C(=O)N2c1ccc(Cl)cc1 [Example 7, (2S)-N-[4′-(4-Chlorophenyl)-3′-oxo-3′,4′-dihydrospiro[cyclohexane-1,2′-pyrido[2,3-b][1,4]oxazine]-7′-yl]-2-(methylamino)propanamide hydrochloride] | 0.01 to 1 | 0.01 to 1 | 0.44 | < 10 | < 1 | < 10 | –
5 | CN[C@@H](C)C(=O)Nc1ccc2c(n1)CN(CC1CCCC1)C(=O)N2c1cccc(Cl)c1 [Example 42, (S)—N-[1-(3-Chloro-phenyl)-3-cyclopentylmethyl-2-oxo-1,2,3,4-tetrahydro-pyrido[3,2-d]pyrimidin-6-yl]-2-methylamino-propionamide hydrochloride] | 0.01 to 1 | 0.01 to 1 | – | – | < 1 | < 10 | –
6 | CN[C@@H](C)C(=O)Nc1ccc2c(n1)OC(C)(C)C(=O)N2c1ccc(Cl)cc1 [Example 6, (S)-N-[1-(4-Chloro-phenyl)-3,3-dimethyl-2-oxo-2,3-dihydro-1H-pyrido[2,3-b][1,4]oxazin-6-yl]-2-methylamino-propionamide hydrochloride] | 0.01 to 1 | 0.01 to 1 | 0.12 | < 10 | < 1 | < 10 | –
7 | CN[C@@H](C)C(=O)Nc1ccc2c(n1)CN(C1CCN(C(C)=O)CC1)C(=O)N2c1cccc(Cl)c1 [Example 38, (S)—N-[3-(1-Acetyl-piperidin-4-yl)-1-(3-chloro-phenyl)-2-oxo-1,2,3,4-tetrahydro-pyrido[3,2-d]pyrimidin-6-yl]-2-methylamino-propionamide] | 1 to 10 | 0.01 to 1 | – | < 10 | < 1 | < 10 | inhibition at 10 µM ([3]; EVSA-T): 75%
8 | CN[C@@H](C)C(=O)Nc1ccc2c(n1)OC1(Cc3ccccc3C1)C(=O)N2c1ccc(Cl)cc1 [Example 9, (2S)-N-[4′-(4-Chlorophenyl)-3′-oxo-1,3,3′,4′-tetrahydrospiro[indene-2,2′-pyrido[2,3-b][1,4]oxazine]-7′-yl]-2-(methylamino)propanamide hydrochloride] | 0.01 to 1 | 0.01 to 1 | 0.12 | < 10 | < 1 | < 10 | –
9 | CN[C@@H](C)C(=O)Nc1ccc2c(n1)OC(C)(CCC(C)C)C(=O)N2c1ccccc1 (stereo partly drawn) [Example 14, (S)-2-Methylamino-N-[3-methyl-3-(3-methyl-butyl)-2-oxo-1-phenyl-2,3-dihydro-1H-pyrido[2,3-b][1,4]oxazin-6-yl]-propionamide hydrochloride] | 0.01 to 1 | 0.01 to 1 | – | – | – | – | EC50 [3, 10]: 0.24 µM; EC50 [3, 11]: < 10 µM
10 | CN[C@@H](C)C(=O)Nc1ccc2c(n1)CN(c1cccc(Cl)c1)C(=O)N2c1cccc(Cl)c1 [Example 24, (S)—N-[1,3-Bis-(3-chloro-phenyl)-2-oxo-1,2,3,4-tetrahydro-pyrido[3,2-d]pyrimidin-6-yl]-2-methylamino-propionamide hydrochloride] | 0.01 to 1 | 0.01 to 1 | 0.36 | < 10 | < 1 | < 10 | –
11 | CN[C@@H](C)C(=O)Nc1ccc2c(n1)CN(C(C)C1CCC1)C(=O)N2c1cccc(Cl)c1 (stereo partly drawn) [Example 37, (S)-N-[1-(3-Chloro-phenyl)-3-(1-cyclobutyl-ethyl)-2-oxo-1,2,3,4-tetrahydro-pyrido[3,2-d]pyrimidin-6-yl]-2-methylamino-propionamide hydrochloride] | 0.01 to 1 | 0.01 to 1 | 0.62 | < 10 | < 1 | < 10 | –
12 | CN[C@@H](C)C(=O)Nc1ccc2c(n1)CN(c1cc(Cl)cc(Cl)c1)C(=O)N2c1cc(Cl)cc(Cl)c1 [Example 25, (S)—N-[1,3-Bis-(3,5-dichloro-phenyl)-2-oxo-1,2,3,4-tetrahydro-pyrido[3,2-d]pyrimidin-6-yl]-2-methylamino-propionamide hydrochloride] | 0.01 to 1 | 0.01 to 1 | 2.3 | < 10 | < 1 | < 10 | –
13 | CNC(C)C(=O)Nc1ccc2[nH]c(=O)n(Cc3ccc(Cl)cc3)c2n1 (stereo not drawn) [Example 1, N-[3-(4-Chloro-benzyl)-2-oxo-2,3-dihydro-1H-imidazo[4,5-b]pyridin-5-yl]-2-methylamino-propionamide hydrochloride] | – | – | – | – | – | – | inhibition at 100 µM ([1]; read-out: IC50 or PI Xiap (percentage inhibition)): 28%; inhibition at 30 µM ([2]; read-out: IC50 or PI cIAP1 (percentage inhibition)): 10%
14 | CN[C@@H](C)C(=O)Nc1ccc2c(n1)CNC(=O)N2 [Example 44, (S)-2-Methylamino-N-(2-oxo-1,2,3,4-tetrahydro-pyrido[3,2-d]pyrimidin-6-yl)-propionamide hydrochloride] | 100 to 300 | – | – | – | – | – | IC50 [2, 12]: 10 to 100 µM
15 | CN[C@@H](C)C(=O)Nc1ccc2c(n1)NCC(=O)N2 [Example 16, (S)-2-Methylamino-N-(2-oxo-1,2,3,4-tetrahydro-pyrido[2,3-b]pyrazin-6-yl)-propionamide hydrochloride] | 10 to 100 | – | – | – | – | – | IC50 [2, 12]: 10 to 100 µM
16 | CN[C@@H](C)C(=O)Nc1ccc2c(n1)CN(C(C)C(C)C)C(=O)N2c1cccc(Cl)c1 (stereo partly drawn) [Example 36, (S)—N-[1-(3-Chloro-phenyl)-3-(1,2-dimethyl-propyl)-2-oxo-1,2,3,4-tetrahydro-pyrido[3,2-d]pyrimidin-6-yl]-2-methylamino-propionamide] | 0.01 to 1 | 0.01 to 1 | 0.88 | < 10 | < 1 | < 10 | –
17 | CN[C@@H](C)C(=O)Nc1ccc2c(n1)OC1(CCCC1)C(=O)N2c1ccc(Cl)cc1 [Example 8, (2S)-N-[4′-(4-Chlorophenyl)-3′-oxo-3′,4′-dihydrospiro[cyclopentane-1,2′-pyrido[2,3-b][1,4]oxazine]-7′-yl]-2-(methylamino)propanamide hydrochloride] | 0.01 to 1 | 0.01 to 1 | 0.19 | < 10 | < 1 | < 10 | –
18 | CCC1(CC)Oc2nc(NC(=O)[C@H](C)N)ccc2N(c2ccc(Cl)cc2)C1=O [Example 45, (S)-2-Amino-N-[1-(4-chloro-phenyl)-3,3-diethyl-2-oxo-2,3-dihydro-1H-pyrido[2,3-b][1,4]oxazin-6-yl]-propionamide hydrochloride] | 0.01 to 1 | – | – | – | – | – | EC50 [3, 10]: 2.9 µM; EC50 [3, 11]: < 10 µM; IC50 ([4]; read-out: IC50 or at least 50% inhibition of the activity at a concentration of 1 μM): < 1 µM; IC50 ([4]; read-out: IC50 or at least 50% inhibition of the activity at a concentration of 10 μM): < 10 µM
19 | CCC1(CC)Oc2nc(NC(=O)[C@H](C)NC)ccc2N(c2ccc(Cl)cc2)C1=O [Example 5, (S)—N-[1-(4-Chloro-phenyl)-3,3-diethyl-2-oxo-2,3-dihydro-1H-pyrido[2,3-b][1,4]oxazin-6-yl]-2-methylamino-propionamide hydrochloride] | 0.01 to 1 | – | – | – | – | – | EC50 [3, 10]: 0.089 µM; EC50 [3, 11]: < 10 µM
20 | CN[C@@H](C)C(=O)Nc1ccc2c(n1)O[C@@H](Cc1ccccc1)C(=O)N2 [Example 4, (S)—N—((S)-3-Benzyl-2-oxo-2,3-dihydro-1H-pyrido[2,3-b][1,4]oxazin-6-yl)-2-methylamino-propionamide hydrochloride] | 1 to 10 | – | – | – | < 1 | < 10 | IC50 [2, 12]: 0.01 to 1 µM; inhibition at 10 µM ([3]; EVSA-T): -13%
21 | [2H]C([2H])([2H])[C@]([2H])(N)C(=O)Nc1ccc2c(n1)OC(CC)(CC)C(=O)N2c1ccc(Cl)cc1 [Example 46, (S)-2-Amino-N-[1-(4-chloro-phenyl)-3,3-diethyl-2-oxo-2,3-dihydro-1H-pyrido[2,3-b][1,4]oxazin-6-yl]-propionamide (2,3,3,3-d4) hydrochloride] | 0.01 to 1 | – | 7.4 | < 10 | – | – | –
